Assay results as given in patent US10202404B2, “Polycyclic pyridone derivative having integrase inhibitory activity” (Shionogi & Co., Ltd., priority 2014, dated 2019).

Test system: HIV
Experiment: Anti-HIV activity (MT-4 cells, MTT)
Assay type: cell-based
Conditions: 50% HIV inhibition concentration; MT-4 cells infected with HIV, incubated 4 days, MTT readout
Method: Previously, a series of two-fold dilution on test samples were carried out in a 96-well plate (50 μL/well). Two plates were made for measuring anti-HIV activity and measuring cytotoxicity. For each agent, measurement in duplicate was carried out. An MT-4 cell suspension of 2.5×10^5/mL was dispensed at 100 μL/well onto the 96-well plate containing the test samples. An HIV virus solution was dispensed at 50 μL/well onto the 96-well plate containing the test samples and the cell. To the plate for measuring cytotoxicity, a culture solution was dispensed at 50 μL/well. It was mixed by a plate mixer, and then incubated in a CO2 incubator for 4 days. […] Thirty microliters of a MTT (3-(4,5-dimethylthiazol-2-yl)-2,5-diphenyltetrazolium bromide) solution was dispensed to each well.
A reaction was allowed to occur in a CO2 incubator for an hour. From each well, 150 μL of the supernatant was removed such that cells are not sucked. One-hundred and fifty microliters of a cell lysis solution was added thereto, and then it was mixed well by a plate mixer until the whole cells are lysed. The mixed 96-well plates were measured by a microplate reader at two wavelengths, 560 nm/690 nm. Based on the following calculation formula, 50% HIV inhibition concentration (EC50) was calculated. EC50=10Z Z=(50%−Low %)/(High %−Low %)×{log(High conc.)−log(Low conc.)}+log(Low conc.) Based on the following calculation formula, 50% cytotoxic concentration (CC50) was calculated. CC50=10Z Z=(50%−Low %)/(High %−Low %)×{log(High conc.)−log(Low conc.)}+log(Low conc.) Based on the following calculation formula, selectivity index (ST) was calculated. SI=CC50/EC50 (Result)

`O=C1c2c(O)c(=O)c(-c3nnc(Cc4ccc(F)cc4F)s3)cn2C[C@@H]2CCCCN12` [Compound B-1] and `O=C1c2c(O)c(=O)c(-c3nnc(Cc4cccc(Cl)c4F)s3)cn2CN2CCCCN12` [Compound C-14] are within 1.5-fold of each other in EC50: 2.9 nM for the first, 2.2 nM for the second.

In the case of `CCN1CN(CCOC)C(=O)c2c(O)c(=O)c(-c3ncc(Cc4ccc(F)cc4F)s3)cn21` [Compound C-10], the EC50 is reported as 5.8 nM.

Same assay, conditions: Human immunodeficiency virus 1, MT4, 96 h; 50% HIV inhibition concentration; MT-4 cells infected with HIV, incubated 4 days, MTT readout

`COC[C@@H]1CCN2C(=O)c3c(O)c(=O)c(-c4nnc(Cc5ccc(F)cc5F)s4)cn3C[C@@H]2O1` [Compound A-68] and `COC[C@H]1CCN2C(=O)c3c(O)c(=O)c(-c4nnc(Cc5ccc(F)cc5F)s4)cn3C[C@H]2O1` [Compound A-69] are within 1.5-fold of each other in EC50: 4.6 nM for the first, 5.1 nM for the second.

`O=C1c2c(O)c(=O)c(-c3nnc(Cc4ccc(F)cc4F)s3)cn2C[C@H]2OCC[C@@H](C(F)(F)F)N12` [Compound A-70] and `C[C@@H]1N2C(=O)c3c(O)c(=O)c(-c4nnc(Cc5ccc(F)cc5F)s4)cn3C[C@H]2OCC1(F)F` [Compound A-77] are within 1.5-fold of each other in EC50: 8 nM for the first, 7.2 nM for the second.

First: C[C@@H]1CCO[C@H]2Cn3cc(-c4cc(Cc5ccc(F)cc5F)sn4)c(=O)c(O)c3C(=O)N12 [Compound A-71]
Second: C[C@@H]1CCO[C@H]2Cn3cc(-c4cc(Cc5ccc(F)cc5F)n(C)n4)c(=O)c(O)c3C(=O)N12 [Compound A-79]
The EC50 of the first is 1.6-fold lower: 9.3 nM for the first, 15 nM for the second.

Going from `C[C@@H]1CCO[C@H]2Cn3cc(-c4cn(Cc5ccc(F)cc5F)nn4)c(=O)c(O)c3C(=O)N12` [Compound A-72] to `CC(=O)Oc1c2n(cc(-c3nnc(Cc4ccc(F)cc4F)s3)c1=O)C[C@@H]1OCC[C@@H](C)N1C2=O` [Compound D-1], the EC50 falls from 8.5 nM to 3.8 nM (2.2-fold). The second is the more potent here.

Going from `O=C1c2c(O)c(=O)c(-c3nnc(Cc4ccc(F)cc4F)s3)cn2C[C@H]2O[C@@H]3COC[C@@H]3N12` [Compound A-73] to `O=C1c2c(O)c(=O)c(-c3nnc(Cc4ccc(F)cc4F)s3)cn2C[C@@H]2O[C@H]3COC[C@H]3N12` [Compound A-74], the EC50 rises from 5.7 nM to 12 nM (2.1-fold). The first is the more potent here.

First: COCc1cc(F)cc(F)c1Cc1nnc(-c2cn3c(c(O)c2=O)C(=O)N2[C@H](C)CCO[C@H]2C3)s1 [Compound A-75]
Second: COCCOC(=O)Oc1c2n(cc(-c3nnc(Cc4ccc(F)cc4F)s3)c1=O)C[C@@H]1OCC[C@@H](C)N1C2=O [Compound D-4]
The EC50 of the first is 2.4-fold higher: 10 nM for the first, 4.1 nM for the second. The second is the more potent here.

`C[C@@H]1CCS[C@H]2Cn3cc(-c4nnc(Cc5ccc(F)cc5F)s4)c(=O)c(O)c3C(=O)N12` [Compound A-76] and `O=C1c2c(O)c(=O)c(-c3nnc(Cc4ccc(F)cc4F)s3)cn2C[C@@H]2[C@H]3CC[C@H](C3)N12` [Compound B-22] are within 1.5-fold of each other in EC50: 4.7 nM for the first, 3.5 nM for the second.

`C[C@H]1N2C(=O)c3c(O)c(=O)c(-c4nnc(Cc5ccc(F)cc5F)s4)cn3C[C@@H]2OCC1(F)F` [Compound A-78] and `O=C1c2c(O)c(=O)c(-c3nnc(Cc4ccc(F)cc4F)s3)cn2C[C@H]2CCCN12` [Compound B-3] are within 1.5-fold of each other in EC50: 4.6 nM for the first, 3.7 nM for the second.

Going from `Cc1nc(-c2cn3c(c(O)c2=O)C(=O)N2[C@H](C)CCO[C@H]2C3)sc1Cc1cccc(Cl)c1F` [Compound A-80] to `O=C1c2c(O)c(=O)c(-c3ncc(Cc4cccc(Cl)c4F)s3)cn2C[C@@H]2CCCN12` [Compound B-14], the EC50 rises from 6.3 nM to 10 nM (1.6-fold). The first is the more potent here.

`O=C1c2c(O)c(=O)c(-c3nnc(Cc4ccc(F)cc4F)s3)cn2C[C@H]2CCCCN12` [Compound B-2] and `O=C1c2c(O)c(=O)c(-c3nnc(Cc4ccc(F)cc4F)s3)cn2C[C@@H]2C[C@@H](F)CCN12` [Compound B-21] are within 1.5-fold of each other in EC50: 3.9 nM for the first, 4 nM for the second.

`O=C1c2c(O)c(=O)c(-c3nnc(Cc4cccc(Cl)c4F)s3)cn2C[C@H]2CCCN12` [Compound B-4] and `O=C1c2c(O)c(=O)c(-c3nnc(Cc4cccc(Cl)c4F)s3)cn2C[C@H]2CCCCN12` [Compound B-5] are within 1.5-fold of each other in EC50: 5.5 nM for the first, 6.7 nM for the second.

First: O=C1c2c(O)c(=O)c(-c3nnc(Cc4cccc(Cl)c4F)s3)cn2C[C@@H]2CCCCN12 [Compound B-6]
Second: O=C1c2c(O)c(=O)c(-c3ncc(Cc4cccc(Cl)c4F)s3)cn2C[C@H]2CCCCN12 [Compound B-18]
The EC50 of the first is 1.9-fold lower: 7.5 nM for the first, 14 nM for the second.

`O=C1c2c(O)c(=O)c(-c3nnc(Cc4c(F)cc(F)cc4F)s3)cn2C[C@H]2CCCCN12` [Compound B-7] and `O=C1c2c(O)c(=O)c(-c3nnc(Cc4c(F)cc(F)cc4F)s3)cn2C[C@@H]2CCCCN12` [Compound B-8] are within 1.5-fold of each other in EC50: 2.9 nM for the first, 3.8 nM for the second.

First: O=C1c2c(O)c(=O)c(-c3nnc(Cc4ccc(F)cc4F)s3)cn2C[C@@H]2[C@@H]3C[C@@H]3CN12 [Compound B-9]
Second: O=C1c2c(O)c(=O)c(-c3nnc(Cc4ccc(F)cc4F)s3)cn2C[C@@H]2COCCN12 [Compound B-10]
The EC50 of the first is 5-fold lower: 2 nM for the first, 10 nM for the second. The first is the more potent here.

`O=C1c2c(O)c(=O)c(-c3nnc(Cc4ccc(F)cc4F)s3)cn2C[C@H]2COCCN12` [Compound B-11] and `O=C1c2c(O)c(=O)c(-c3nnc(Cc4ccc(F)cc4F)s3)cn2CN2CCOCCN12` [Compound C-16] are within 1.5-fold of each other in EC50: 5.9 nM for the first, 8.5 nM for the second.

Compared with `O=C1c2c(O)c(=O)c(-c3ncc(Cc4ccc(F)cc4F)s3)cn2C[C@@H]2CCCN12` [Compound B-13], `O=C1c2c(O)c(=O)c(-c3ncc(Cc4ccc(F)cc4F)s3)cn2C[C@H]2CCCN12` [Compound B-15] is 1.9-fold lower in EC50: 7.7 nM for the first, 4 nM for the second.

Going from `O=C1c2c(O)c(=O)c(-c3ncc(Cc4ccc(F)cc4F)s3)cn2C[C@H]2CCCCN12` [Compound B-16] to `O=C1c2c(O)c(=O)c(-c3ncc(Cc4cccc(Cl)c4F)s3)cn2C[C@@H]2CCCCN12` [Compound B-19], the EC50 rises from 7.7 nM to 18 nM (2.3-fold). The first is the more potent here.

Going from `O=C1c2c(O)c(=O)c(-c3ncc(Cc4cccc(Cl)c4F)s3)cn2C[C@H]2CCCN12` [Compound B-17] to `CCN1CN(CCOC)C(=O)c2c(O)c(=O)c(-c3nnc(Cc4cccc(Cl)c4F)s3)cn21` [Compound C-4], the EC50 falls from 5.3 nM to 2.1 nM (2.5-fold). The second is the more potent here.

`CCN1CN(CCOC)C(=O)c2c(O)c(=O)c(-c3nnc(Cc4ccc(F)cc4F)s3)cn21` [Compound C-2] and `CCN1CN(CCCOC)C(=O)c2c(O)c(=O)c(-c3nnc(Cc4ccc(F)cc4F)s3)cn21` [Compound C-7] are within 1.5-fold of each other in EC50: 1.4 nM for the first, 2 nM for the second.

Compared with `COCCN1CN(C)n2cc(-c3nnc(Cc4ccc(F)cc4F)s3)c(=O)c(O)c2C1=O` [Compound C-3], `COCCN1CN(C)n2cc(-c3ncc(Cc4ccc(F)cc4F)s3)c(=O)c(O)c2C1=O` [Compound C-13] is 2.5-fold higher in EC50: 1.1 nM for the first, 2.7 nM for the second.

Going from `CCN1CN([C@H](C)C(F)(F)F)C(=O)c2c(O)c(=O)c(-c3nnc(Cc4ccc(F)cc4F)s3)cn21` [Compound C-5] to `CCN1CN([C@H](C)C(F)(F)F)C(=O)c2c(O)c(=O)c(-c3nnc(Cc4cccc(Cl)c4F)s3)cn21` [Compound C-6], the EC50 rises from 3.4 nM to 5.7 nM (1.7-fold).

First: CCN1CN(CCCOC)C(=O)c2c(O)c(=O)c(-c3nnc(Cc4cccc(Cl)c4F)s3)cn21 [Compound C-8]
Second: COCCN1Cn2cc(-c3nnc(Cc4ccc(F)cc4F)s3)c(=O)c(O)c2C(=O)N1C [Compound C-26]
The EC50 of the first is 1.6-fold higher: 2.4 nM for the first, 1.5 nM for the second. The second is the more potent here.

First: O=C1c2c(O)c(=O)c(-c3nnc(Cc4ccc(F)cc4F)s3)cn2CN2CCCCN12 [Compound C-15]
Second: O=C1c2c(O)c(=O)c(-c3nnc(Cc4ccc(F)cc4F)s3)cn2CN2CCCN12 [Compound C-19]
The EC50 of the first is 2.5-fold lower: 1.7 nM for the first, 4.2 nM for the second. The first is the more potent here.

Going from `CN1Cn2cc(-c3nnc(Cc4ccc(F)cc4F)s3)c(=O)c(O)c2C(=O)N1C` [Compound C-18] to `CCN1C(=O)c2c(O)c(=O)c(-c3nnc(Cc4ccc(F)cc4F)s3)cn2CN1C` [Compound C-23], the EC50 falls from 2.3 nM to 1.2 nM (1.9-fold). The second is the more potent here.

`COCCN1C(=O)c2c(O)c(=O)c(-c3nnc(Cc4ccc(F)cc4F)s3)cn2CN1C` [Compound C-20] and `COCCN1Cn2cc(-c3nnc(Cc4ccc(F)cc4F)s3)c(=O)c(O)c2C(=O)N1CCOC` [Compound C-27] are within 1.5-fold of each other in EC50: 1.7 nM for the first, 2 nM for the second.

`CCN1Cn2cc(-c3nnc(Cc4ccc(F)cc4F)s3)c(=O)c(O)c2C(=O)N1CC` [Compound C-21] and `CCN1NCn2cc(-c3nnc(Cc4ccc(F)cc4F)s3)c(=O)c(O)c2C1=O` [Compound C-25] are within 1.5-fold of each other in EC50: 1.5 nM for the first, 2.2 nM for the second.

First: COCCN1Cn2cc(-c3nnc(Cc4ccc(F)cc4F)s3)c(=O)c(O)c2C(=O)N1C(C)C [Compound C-22]
Second: CC1CCN2Cn3cc(-c4nnc(Cc5ccc(F)cc5F)s4)c(=O)c(O)c3C(=O)N12 (stereo not drawn) [Compound C-28]
The EC50 of the first is 3.7-fold lower: 1.3 nM for the first, 4.8 nM for the second. The first is the more potent here.

Compared with `O=C1c2c(O)c(=O)c(-c3nnc(Cc4ccc(F)cc4F)s3)cn2CN2CC3(CC3)CN12` [Compound C-24], `COC(=O)OCOc1c2n(cc(-c3nnc(Cc4ccc(F)cc4F)s3)c1=O)C[C@@H]1OCC[C@@H](C)N1C2=O` [Compound D-2] is 3.3-fold higher in EC50: 2.4 nM for the first, 8 nM for the second. The first is the more potent here.

`C[C@@H]1CCO[C@H]2Cn3cc(-c4nnc(Cc5ccc(F)cc5F)s4)c(=O)c(OCOC(=O)C(C)(C)C)c3C(=O)N12` [Compound D-3] showed an EC50 of 4.8 nM.
